Assay results as given in patent US8492391B2, “Substituted 6-(2-hydroxybenzylamino)purine derivatives, their use as medicaments and compositions containing these derivatives” (Univerzita Palackeho V Olomouci, priority 2009, dated 2013).
“Also recorded” adds a separate entry of the source.

What was measured:
[1] = tested on: p53, p21^WAF1, Mcl-1 in MCF-7 cells; experiment: Immunoblotting of p53, p21WAF1 and Mcl-1 in MCF-7 cells; assay type: cell-based, human
Description: For immunoblotting, cell were detached with rubber policeman and washed three times with ice-cold PBS and lysed in buffer (50 mM Tris, pH 7.4, 250 mM NaCl, 5 mM EDTA, 50 mM NaF, 1 mM Na3VO4, 1% Nonidet P40) containing mixture of protease and phosphatase inhibitors (Sigma-Aldrich, USA). 20 μg of total proteins were separated by SDS-polyacrylamide gel electrophoresis (SDS-PAGE) and transferred onto nitrocellulose membranes. Membranes were blocked in 5% milk and 0.1% Tween 20 in PBS and probed overnight with specific monoclonal antibodies or rabbit polyclonal sera. Primary antibodies specific for p53 (DO-1, in house), p21^WAF1 (118, in house), PARP-1 (2C10, Sigma-Aldrich St Louis, Mo., USA), Mcl-1 (S-19, Santa Cruz, USA), all used at 1 μg/ml. All primary antibodies were diluted in PBS containing 5% powdered milk; 0.1% Tween 20. Peroxidase conjugated rabbit anti-mouse immunoglobulin or porcine anti-rabbit immunoglobulin antisera (DAKO, Denmark) were used as the secondary antibodies and visualised with ECL reagents (Amersham-Pharmacia, Little Chalfont, UK).
The induction of p53 protein was apparent in 4 hrs but enhanced level of p21^WAF1 protein was observed only 12 hours after treatment with compound 128 (FIG. 5). The periods of time 12 and 24 hrs were chosen, since the level of protein expression reached a steady state.

[2] = tested on: C-terminal domain of RNA polymerase II (serine 2 and serine 5 phosphorylation); experiment: Immunoblotting of RNA polymerase II CTD phosphorylation (CDK9 activity in cells), MCF-7; assay type: cell-based, human; conditions: MCF-7 cells
Description: Effect of compounds on CDK9 activity in cells was monitored by site-specific phosphorylations of C-terminal domain of RNA polymerase II, a substrate of CDK9, by means of immunoblotting. For immunoblotting, cell were detached with rubber policeman and washed three times with ice-cold PBS and lysed in buffer (50 mM Tris, pH 7.4, 250 mM NaCl, 5 mM EDTA, 50 mM NaF, 1 mM Na3VO4, 1% Nonidet P40) containing mixture of protease and phosphatase inhibitors (Sigma-Aldrich, USA). 20 μg of total proteins were separated by SDS-polyacrylamide gel electrophoresis (SDS-PAGE) and transferred onto nitrocellulose membranes. Membranes were blocked in 5% milk and 0.1% Tween 20 in PBS and probed overnight with specific monoclonal antibodies or rabbit polyclonal sera. Primary antibodies specific for RNA polymerase II (all from Santa Cruz Biotechnology, California, USA) included: (i) N-20 used at 1 μg/ml, (ii) H14, specific for form phosphorylated at phosphoserine 5, used at 6 μg/ml and (iii) H5, specific for form phosphorylated at phosphoserine 2 used at 4 μg/ml. […] All primary antibodies were diluted in PBS containing 5% powdered milk; 0.1% Tween 20. Peroxidase conjugated rabbit anti-mouse immunoglobulin or porcine anti-rabbit immunoglobulin antisera (DAKO, Denmark) were used as the secondary antibodies and visualised with ECL reagents (Amersham-Pharmacia, Little Chalfont, UK). […]

p53 = experiment: p53-dependent transcription, β-galactosidase reporter in Arn8 cells; assay type: cell-based, human; set-up: key to p53 (effect): induction of p53 protein: ++: very strong; +: weak; −: no effect
From the text: Protein p53, accumulated in nuclei upon treatment by the compounds, then leads to trans-activation of natural cell cycle inhibitor p21^WAF1, further blocking the cell cycle. […] This allows qualitative as well as quantitative measurement of CDK inhibitors-induced p53 transcriptional activity via β-galactosidase assay. Then, the effect will be verified in treated cells by immunoblotting of proteins expressed under the control of p53. β-galactosidase activity of human melanoma cell line Arn8 was determined as described. […] Alternatively, β-galactosidase activity was quantified by measuring fluorescence of methylumbelliferyl-β-D-galactopyranoside cleavage product. Cell lines established from the human breast carcinoma (MCF-7) and the human melanoma (Arn8) cell lines were cultured in Dubecco's Modified Eagle Medium (DMEM) supplemented with 10% foetal bovine serum.
Effects of prepared compounds on activation of p53 protein were analysed in human melanoma cell line Arn8. […] The total β-galactosidase activity in Arn8 cells was quantified using a fluorimetric assay.

P388D1 leukemia = experiment: Survival model of P388D1 leukemia transplanted intraperitoneally; assay type: in vivo, DBA-2 mice; conditions: 250 mg/kg orally twice daily, Days 1-3 and 7-9
Description: Screening of biological activity of compound 128 was performed on survival model of P388D1 leukemia transplanted intraperitoneally with 2.10^5 cells. DBA-2 mice were used as a host. One day following the leukemia transplantation, treatment with 128 was initiated. The drug was given orally by gastric gavages in total volume of 200 μl/dose twice daily at dose 250 mg/kg in two chemotherapy cycles (Days 1-3 and 7-9). The compound 128 was solubilized in 5% N-methyl-2-pyrollidine, 30% polyethylene glycol 400, 65% tartar buffer (pH 3.0). Survival analysis of treated animals (10 mice/group) was preformed in comparison with vehicle treated mice using Kaplan-Meier method and the significance was evaluated by the log-rank test. Body weight of experimental animals was evaluated in parallel in order to reflect toxicity and efficacy of therapy. Comparative analysis of body weight was performed using non-parametric t-test.

Which “expression of p53, p21^Waf1 and Mcl-1” value ([1]; MCF7, 24 h, concentration dependent, immunoblotting) does the source give for `CCC(CO)Nc1nc(NCc2cccc(OC)c2O)c2ncn(C(C)C)c2n1` (racemic) [Compound 128, (RS)-2-({6-[(2-hydroxy-3-methoxybenzyl)amino]-9-isopropyl-9-H-purin-2-yl}amino)butan-1-ol] here?
The value was “accumulation of tumor suppressor protein p53, expression of p53-regulated CDK inhibitor p21^Waf1 and downregulation of antiapoptotic protein Mcl-1”.

What about the “time after treatment at which enhanced level of p21^WAF1 protein was observed” value ([1]; MCF-7 cells) of the same compound?
The value was 12 h.

What about the “time at which induction of p53 protein was apparent” value ([1]; MCF-7 cells) of the same compound?
The value was 4 h.

What about the “levels of serine 2 and serine 5 phosphorylation of RNA polymerase II CTD” value [2] of the same compound?
The value was “substantially reduced; also recorded: is inhibited”.

What about the “p53 (effect): induction of p53 protein” value (p53; Arn8 cells stable transfected with a β-galactosidase reporter gene) of the same compound?
The value was “++”.

What about the “total β-galactosidase activity” value (p53; Arn8 cells, 5 μM, 12 and 24 hours after treatment, vs DMSO control) of the same compound?
Its value is “strong activity of β-galactosidase”.

What about the “p53 (peak concentration in μM)” value (p53; Arn8 cells, concentration inducing maximum of β-galactosidase activity) of the same compound?
Its value is 8.0 µM.

And the “activation of p53-dependent transcription” value (p53; Arn8 reporter cell line, β-galactosidase reporter activity)?
The value was “proved to activate p53-dependent transcription”.

What about the “body weight of treated animals” value (P388D1 leukemia) of the same compound?
The value was “reducing body weight of treated animals”.

What about the mean survival time (P388D1 leukemia) of the same compound?
Its mean survival time is 27.4 days.

And the “survival (Kaplan-Meier, log-rank test)” value (P388D1 leukemia; vs vehicle, P=0.0427)?
The value was “significantly better survival”.
